Source: paper PMC12867150, “A fungi-derived cyclic peptide enhances Th9-mediated antitumor immunity by targeting ZAP70 and SREBP1” (The Journal of Clinical Investigation, 2025)
Values joined by “and” are separate entries in the source; they are usually repeats but may differ in a detail not shown here. Identical values can stand only once.

Experiments:
Format in all cases: cell-based, mouse
Th9 cells [1] = experiment: IL-9+ Th9 cells with oleic acid (S8I-J); conditions: OA 50 μM
From the text: LXR-α binding site ChREBP binding site USF1 binding site […] 2.1 1.8 2.1 […] 1.9 […] 20 20 0 […] + OA ✱✱✱✱ MIGR1 M Ctrl + OAEpA […] SREBP1 Ctrl SREBP1EpA ✱✱✱✱ ✱✱✱ 3 2 1 0 TNF-α MIGR1 SREBP1 […] SREBP1EpA Figure S8. EpA-associated modulation of lipid metabolism and its impact on Figure S8 Th9 cell function. (A-C) GSEA of RNA-seq data showing intracellular sterol transport (A), sterol transfer activity (B), and long-chain fatty acid transport (C) pathways in control and EpA-treated Th9 cells. […] (K and L) Flow-cytometric analysis of IL-9 expression in Th9 cells transduced with either control (MIGR1) or SREBP1- […]

PD-1 on Th9 cells = experiment: Flow cytometry of PD-1 on Th9 cells in vitro (Figure 5K, 7E, S3D); conditions: for PD1 (flow cytometric quantification): Figure 5K, single agent, individual replicates, (n = 5); for PD-1 expression: MEK/ERK blockade, even with EpA, result in words
Method: (§1) Naive CD4^+ T cells were isolated from the spleens of C57BL/6J or CD45.1^+ OT-II mice using the MojoSort Mouse CD4 Naive T Cell Isolation Kit (BioLegend, catalog 480040), following the manufacturer’s protocol. Purified cells were cultured in RPMI-1640 medium supplemented with 10% FBS, 1% penicillin-streptomycin, and 0.1% β-mercaptoethanol (Gibco, catalog 21985023).
(§2) T cell polarization was initiated under plate-bound anti-CD3 (2 μg/mL, clone 17A2, BioXCell, catalog BE0002) and soluble anti-CD28 (1 μg/mL, clone 37.51, BioXCell, catalog BE0015-1) stimulation, with the addition of cytokines and neutralizing antibodies specific to each subset. For Th9 cells, these included IL-4 (10 ng/mL, Peprotech, catalog 400-04), TGF-β (1 ng/mL, EPOTO Biotech, catalog HF-2021), anti–IL-12 (5 μg/mL, clone C17.8, BioXCell, catalog BE0051), and anti–IFN-γ (10 μg/mL, clone XMG1.2, BioXCell, catalog BE0055); for Th1 cells, these included IL-12 (10 ng/mL, GenScript, catalog Z03211-50) and anti–IL-4 (5 μg/mL, clone 11B11, BioXCell, catalog BE0045); for Th2 cells, these included IL-4 (50 ng/mL), anti–IFN-γ (20 μg /mL), anti–IL-12 (5 μg/mL), Th17 cells: IL-6 (20 ng/mL, EPOTO Biotech, catalog MF-1006), TGF-β (1 ng/mL), IL-1β (10 ng/mL, Peprotech, catalog AF-211-11B), anti–IFN-γ (10 μg/mL), anti–IL-12 (5 μg/mL), and anti–IL-4 (5 μg/mL); and for Tregs, these included TGF-β (3 ng/mL). After 3 days of initial culture, cells were either collected for downstream assays or continued in extended culture with refreshed cytokines to maintain lineage commitment.
(§3) Details regarding staining panels (human and mouse), reagents (including clones and catalog numbers), acquisition settings, compensation/controls, and analysis procedures are provided in Supplemental Methods.
(§4) BioLegend, Cat. No. 422301 or Mouse TruStain FcX™, BioLegend, Cat. No. 101319) for 10 minutes at 4°C. For surface marker detection, cells were stained with fluorochrome-conjugated monoclonal antibodies in 96-well V-bottom plates and incubated on ice for 30 minutes. After staining, cells were washed twice and resuspended in FACS buffer for analysis.
(§5) Prior to intracellular cytokine staining, cells were restimulated for 4 hours with PMA (Absin, Cat. No. abs9107), ionomycin (Sigma-Aldrich, Cat. No. I0634), and brefeldin A (MedChemExpress, Cat. No. HY-16592). For intracellular cytokine staining, cells were first surface-stained as described above, then fixed and permeabilized using the BD Cytofix/Cytoperm™ kit (BD Biosciences, Cat. No. 554714) according to the manufacturer ’s protocol. Intracellular proteins were stained with directly conjugated antibodies targeting IL-9, IL-17a, IL-4, IFN-γ, TNF-α, FOXP3, p-ZAP70, Perforin, and […]
(§6) Antibodies used for mouse samples included those against IL-9 (PE, clone RM9A4, Biolegend, Cat. No. 514104), IFN-γ (PE, clone XMG1.2, Biolegend, Cat. No.
(§7) Cat. No. 103138), CD4 (APC/Cy7, clone E-AB-F1353UJ, Elabscience, Cat. No.
(§8) AF18028), CD8α (PerCP/Cy5.5, clone E-AB-F1104UJ, Elabscience, Cat. No. […]
(§9) clone E-AB-F1187UH, Elabscience, Cat. No. AF19854), TNF-α (BV421, clone MP6-XT22, Biolegend, Cat. No. 506328), FOXP3 (PE, clone FJK-16s, eBioscience, Cat. No.
(§10) Perforin (APC, clone S16009A, Biolegend, Cat. No. 154303) and Granzyme B (APC, […]
(§11) clone QA16A02, Biolegend, Cat. No. 372203). […]

[2] = tested on: mitochondria of Th9 cells; experiment: Flow cytometry with MitoTracker Deep Red (Figure 4M, 5L, 7F, 7J); conditions: Figure 5L, single agent, individual replicates, (n = 3)
Method: […] Cells were incubated with the respective dyes, washed, and subjected to flow cytometry or fluorescence microscopy analysis. For ultrastructural assessment, mitochondrial number and diameter were quantified from high-resolution transmission electron microscopy (TEM) images using ImageJ software.

Th9 cells [3] = experiment: IL-9+ Th9 cells with MEK or ERK inhibition (Figure 5H); conditions: for IL-9 (flow cytometric quantification): Figure 5H, single agent, individual replicates, (n = 5); for IL-9 production: trametinib 10 nM, temuterkib 100 nM, result in words
Method: (A) Identification and ranking of EpA-interacting proteins by affinity pulldown and LC-MS/MS, ordered by in silico binding energy predictions. […] (E) Flow-cytometric analysis of phosphorylated ZAP70 in Th9 cells 10 minutes after TCR activation (mean ± SEM, n = 3). (F) Pathway enrichment analysis of RNA-seq data showing MAPK/ERK-related pathways in EpA-treated Th9 cells. (G) Immunoblot analysis of total and phosphorylated MEK1/2 and ERK1/2 in control and EpA-treated Th9 cells. (H–L) Functional consequences of MEK or ERK inhibition in EpA-treated Th9 cells. […] Data in H–K are shown as mean ± SEM (n = 5) and in L as mean ± SEM (n = 3). Statistical significance was determined using 1-way ANOVA followed by Tukey’s test (E, H–L). *P < 0.05, **P < 0.01, ***P < 0.001, ****P < 0.0001.
as §2
The following pharmacological inhibitors were used at the indicated final concentrations: trametinib (MEK1/2 inhibitor; Selleck, catalog S4484) at 10 nM; temuterkib (ERK1/2 inhibitor; MCE, catalog HY-101494) at 100 nM; and fatostatin hydrobromide (SREBP inhibitor; MCE, catalog HY-14452A) at 5 μM. Dead cells were detected using Fixable Viability Dye eFluor 780 (eBioscience, catalog 65-0865).

CD69 on Th9 cells = experiment: Flow cytometry of CD69 on Th9 cells in vitro (Figure 5J, 7D); conditions: for CD69 (flow cytometric quantification): Figure 5J, single agent, individual replicates, (n = 5); for CD69 expression: MEK/ERK blockade, even with EpA, result in words
Method: as §1, §2, §3, §4, §5, §6, §7, §8, §9, §10, §11

TNF-α in Th9 cells = experiment: Flow cytometry of TNF-α in Th9 cells in vitro (Figure 3F, 5I, 7C, S8M-N); conditions: for TNF (flow cytometric quantification): Figure 5I, single agent, individual replicates, (n = 5); for TNF-α expression: MEK/ERK blockade, even with EpA, result in words
Method: as §1, §2, §3, §4, §5, §6, §7, §8, §9, §10, §11

Structure (SMILES) | Th9 polarization with oleic acid (Th9 cells [1]; result in words) | IL-9 gate number (Th9 cells [1]; representative flow plot, Figure S8I, EpA 10 μM) | PD1 (flow cytometric quantification) (PD-1 on Th9 cells; listed as ERKin) | PD-1 expression (PD-1 on Th9 cells) | Mito tracker (flow cytometric quantification) ([2]; listed as ERKin) | IL-9 (flow cytometric quantification) (Th9 cells [3]; listed as ERKin) | IL-9 production (Th9 cells [3]) | CD69 (flow cytometric quantification) (CD69 on Th9 cells; listed as ERKin) | CD69 expression (CD69 on Th9 cells) | TNF (flow cytometric quantification) (TNF-α in Th9 cells; listed as ERKin) | TNF-α expression (TNF-α in Th9 cells) | PD1 (flow cytometric quantification) (PD-1 on Th9 cells; listed as MEKin) | Mito tracker (flow cytometric quantification) ([2]; listed as MEKin) | IL-9 (flow cytometric quantification) (Th9 cells [3]; listed as MEKin) | CD69 (flow cytometric quantification) (CD69 on Th9 cells; listed as MEKin) | TNF (flow cytometric quantification) (TNF-α in Th9 cells; listed as MEKin)
CCCCCCCC/C=C\CCCCCCCC(=O)O [oleic acid] | antagonizes Th9 polarization | 0.8 | – | – | – | – | – | – | – | – | – | – | – | – | – | –
Cn1nccc1Nc1nccc(-c2cc3c(s2)C(C)(C)N(CCN2CCOCC2)C3=O)n1 [temuterkib, reference compound] | – | – | 218 and 220 and 219 and 229 and 222 | significantly reduced | 1115 (2×) and 1113 | 0.84 and 0.88 and 0.8 and 0.91 and 1 | almost completely abrogated IL-9 production | 21.9 and 20.8 and 21.6 (2×) and 21.7 | significantly reduced | 1577 and 1578 and 1574 and 1552 and 1651 | significantly reduced | – | – | – | – | –
CC(=O)Nc1cccc(-n2c(=O)n(C3CC3)c(=O)c3c(Nc4ccc(I)cc4F)n(C)c(=O)c(C)c32)c1 [trametinib, reference compound] | – | – | – | significantly reduced | – | – | almost completely abrogated IL-9 production | – | significantly reduced | – | significantly reduced | 177 and 192 and 187 (2×) and 180 | 942 and 929 and 920 | 0.7 and 0.66 and 0.89 and 0.62 and 0.69 | 19.1 and 22.5 and 21.5 and 19.6 and 18.9 | 1461 and 1480 and 1452 (2×) and 1443
